Results taken from publication doi:10.1101/2020.07.07.192294v1 (biorxiv, 2020).
Like-named read-outs stand apart in the source and are kept apart here.

Assays:
[1] = biological target: T1, CYP142 (Rv3518c) (Mycobacterium tuberculosis, UniProt P9WPL5); assay: biochemical; format: binding
T1 sequence (P9WPL5 1-398): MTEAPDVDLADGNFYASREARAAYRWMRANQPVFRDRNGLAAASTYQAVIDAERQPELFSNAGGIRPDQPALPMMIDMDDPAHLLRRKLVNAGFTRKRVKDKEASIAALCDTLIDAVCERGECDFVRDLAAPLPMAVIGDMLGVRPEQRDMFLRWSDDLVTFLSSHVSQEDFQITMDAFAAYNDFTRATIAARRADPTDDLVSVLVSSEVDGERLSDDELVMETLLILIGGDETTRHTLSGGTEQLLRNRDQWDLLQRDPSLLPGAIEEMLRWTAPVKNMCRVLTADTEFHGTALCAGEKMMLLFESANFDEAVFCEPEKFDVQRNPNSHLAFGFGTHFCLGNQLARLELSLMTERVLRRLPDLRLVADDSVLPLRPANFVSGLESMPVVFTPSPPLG

[2] = biological target: T2, CYP124 (Mycobacterium tuberculosis, UniProt P9WPP3); assay: biochemical
T2 sequence (P9WPP3 1-428): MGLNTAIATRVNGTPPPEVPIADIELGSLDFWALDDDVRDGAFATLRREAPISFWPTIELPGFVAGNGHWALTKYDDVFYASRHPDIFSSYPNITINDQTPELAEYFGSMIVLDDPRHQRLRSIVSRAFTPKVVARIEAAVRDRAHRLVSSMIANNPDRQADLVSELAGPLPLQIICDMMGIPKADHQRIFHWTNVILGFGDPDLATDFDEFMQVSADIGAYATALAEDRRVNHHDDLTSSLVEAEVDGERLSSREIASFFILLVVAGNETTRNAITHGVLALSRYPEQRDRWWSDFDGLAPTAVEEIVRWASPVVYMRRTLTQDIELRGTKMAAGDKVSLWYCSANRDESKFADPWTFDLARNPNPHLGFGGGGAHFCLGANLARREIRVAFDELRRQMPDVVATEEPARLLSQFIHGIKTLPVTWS

[3] = biological target: T3, CYP125 (Mycobacterium tuberculosis, UniProt P9WPP1); assay: biochemical
T3 sequence (P9WPP1 1-433): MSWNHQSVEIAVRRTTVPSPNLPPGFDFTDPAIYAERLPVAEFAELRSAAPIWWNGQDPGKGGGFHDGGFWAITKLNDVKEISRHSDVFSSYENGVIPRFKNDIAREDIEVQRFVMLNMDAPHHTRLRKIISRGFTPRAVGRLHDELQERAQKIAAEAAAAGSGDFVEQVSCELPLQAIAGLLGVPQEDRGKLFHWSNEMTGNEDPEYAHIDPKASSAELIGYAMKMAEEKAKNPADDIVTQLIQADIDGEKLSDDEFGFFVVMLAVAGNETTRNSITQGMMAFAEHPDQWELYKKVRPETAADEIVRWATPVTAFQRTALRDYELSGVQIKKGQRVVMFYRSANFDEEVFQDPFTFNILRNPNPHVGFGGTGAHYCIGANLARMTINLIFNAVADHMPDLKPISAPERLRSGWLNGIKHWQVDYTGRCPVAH

[4] = biological target: T4, CYP142 (Rv3518c) (Mycobacterium tuberculosis, UniProt P9WPL5); assay: biochemical
[5] = biological target: T4, CYP142 (Rv3518c); conditions: read-out: Kdapp ± SE (μM) / CYP142; binder

| SMILES | Kd [1] [µM] | Kd [2] [µM] | Kd [3] [µM] | Kd [4] [µM] | Kd ([2]; read-out: Kdapp ± SE (μM) / CYP124, binder) [µM] | Kd ([3]; read-out: Kdapp ± SE (μM) / CYP125, binder) [µM] | Kd [5] [µM] |
| --- | --- | --- | --- | --- | --- | --- | --- |
| CCOC(=O)CCCCCCn1ccnc1 [CHImi] | 3.73 ± 0.19 | 1.45 ± 0.08 | 31 ± 4 |  |  |  |  |
| CC(C)CCC[C@@H](C)[C@H]1CC[C@H]2[C@@H]3[C@@H](O)C=C4C[C@@H](O)CC[C@]4(C)[C@H]3CC[C@]12C [7βOHC] |  | 11.1 ± 1.3 | 13 ± 2 | 6 ± 1.4 |  |  |  |
| CC(C)CCC[C@@H](C)[C@H]1CC[C@H]2[C@@H]3[C@@H](O)CC4=CC(=O)CC[C@]4(C)[C@H]3CC[C@]12C [7βOHC-one] |  |  |  |  | 13.2 ± 1.7 | 26 ± 3 | 27 ± 8 |
| O=C(O)CCCCCCCn1ccnc1 [ChpImi] | 31 ± 3 | 3.1 ± 0.5 | 1.61 ± 0.03 |  |  |  |  |
| Cc1cc(CCC(C)C)ccc1NC=NO [cpd5', N′-hydroxy-N-(4-isopentyl-2-methylphenyl)formimidamide] | 0.17 ± 0.06 | 1.93 ± 0.16 | 16 ± 5 |  |  |  |  |
| CC(C)CCC[C@@H](C)[C@H]1CC[C@H]2[C@@H]3CCC4=CC(=O)CC[C@]4(C)[C@H]3CC[C@]12C [Cholestenone] |  | 3.4 ± 0.6 | 10.8 ± 1.8 |  |  |  |  |
| CC(C)CCC[C@@H](C)[C@H]1CC[C@H]2[C@@H]3C(=O)C=C4C[C@@H](O)CC[C@]4(C)[C@H]3CC[C@]12C [7ketoC] |  | 6.5 ± 0.8 | 12.4 ± 1.7 | 4.3 ± 0.8 |  |  |  |
